Assay results taken from US9238797B2, “Method for production of pluripotent stem cell” (TAKARA BIO INC., priority 2008, dated 2016).

Columns and labels:
Format in all cases: cell-based
[1] = test system: human skin fibroblast; experiment: iPS cell colony induction, Retronectin or polybrene with changed virus amount (Example 10); details: 28th day of culture, N=2
Experimental: Regarding gene transfer with a retrovirus vector, an amount of retrovirus was further changed in the condition under which each of Retronectin or polybrene was used, and induction of a pluripotent stem cell was carried out, followed by comparison. According to the same manner as that of Example 7-(2), gene transfer was carried out, provided that a group in which a virus solution is diluted 10-fold or 100-fold with 10F-DMEM was set. […] According to the same manner as that of Example 7-(4), the gene-introduced cell was seeded on a feeder cell, and culturing was continued, provided that the gene-introduced cell was seeded by each 2×10^4 cells. […] In addition, the number in the Table indicates an average value of N=2.

[2] = test system: human skin fibroblast; experiment: iPS cell colony number, Retronectin method versus polybrene method (Example 19); details: for iPS cell colony number: 28th day of culture
Experimental: As an index showing an existence rate of a cell in which each retrovirus vector together with a gene encoding a nuclear reprogramming factor (iPS cell inducing factor) was inserted, gene transfer of an AcGFP1 gene was carried out, and a pluripotent stem cell (iPS cell) induction efficiency and an AcGFP1 positive cell rate, in a gene transfer method with Retronectin (Retronectin method) and a gene transfer method with polybrene (polybrene method) were compared. In addition, regarding partial condition, quantitation of a copy number of a retrovirus vector inserted into a genome was carried out, and comparison of a copy number and a pluripotent stem cell (iPS cell) induction efficiency was carried out.
The virus solutions prepared in Preparation Example 2 and Preparation Example 3 were mixed at an equal amount in a combination of Table 24, the solution in which the virus solution was diluted 10-fold and 100-fold with 10F-DMEM was prepared regarding the condition A, and the solution in which the virus solution was diluted 10-fold was prepared regarding the condition B, and these were used in gene transfer. Gene transfer was carried out according to the same manner as that of Example 7-(2), provided that 1 mL of PSB was used for washing a plate with PBS in the Retronectin method, the cell number used in infection by the Retronectin method and the polybrene method was 4×10^4 cells/well, and a retrovirus vector solution was 1 mL/well.
According to the same manner as that of Example 10-(4), seeding of the gene-introduced cell on a feeder cell was carried out, provided that an AcGFP1 positive cell rate was measured with a flow cytometer using remaining cells which were not used in seeding on the feeder cell.
According to the same manner as that of Example 10-(5), culturing on the feeder cell was carried out, provided that cells were recovered from a part of wells under the condition A on the 11th day of culture, genome extraction was carried out, and the inserted number of the retrovirus vector was quantitated.

[3] = test system: human adult skin fibroblast; experiment: iPS cell colony induction, standing infecting method, Retronectin versus Native fibronectin (Example 21); details: virus 10-fold dilution, standing infection, 27th day of culture, N=3
Experimental: Using a plate coated with Retronectin and a plate coated with Native fibronectin, gene transfer was carried out, and pluripotent stem cell induction was carried out. In addition, as the plate, a plate made in the following Example 21-(1), and a marketed product of a 35 mm petri dish coated with Retronectin in advance (T110A manufactured by TAKARA BIO INC.), and a marketed product of a 35 mm petri dish coated with Native fibronectin in advance (354457 manufactured by FALCON) were used.
According to the same manner as that of Example 1-(1), immobilization of Retronectin on a culture plate was carried out, provided that, as a culturing container, a non-treatment 35 mm petri dish (manufactured by IWAKI CO., LTD.) was used. In addition, petri dishes coated with Retronectin and Native fibronectin in advance which are marketed products (hereinafter, also described as Retronectin dish and fibronectin dish) were not subjected to these immobilization operations.
The virus solutions prepared in Preparation Example 2 were mixed at an equal amount in a combination of Table 27, and diluted 10-fold with 10F-DMEM, each 2 mL was added to the Retronectin-immobilized culturing petri dish prepared in Example 21-(1), or the petri dish coated with Retronectin or Native fibronectin in advance, and this was allowed to stand in a CO2 incubator at 32° C. for 4 to 6 hours. […]

Retronectin: fragment of fibronectin having a heparin-II binding region (registered trademark, CH-296, TAKARA BIO INC.)
Number of iPS cell colonies ([1]; virus 10-fold dilution): 12.0 | Number of iPS cell colonies ([1]; virus 100-fold dilution): 17.5 | Number of iPS cell colonies ([1]; virus solution undiluted): 6.5 | iPS cell colony number higher in the Retronectin method ([2]; Condition A, Retronectin method 100-fold dilution versus polybrene method 10-fold dilution): 9 fold | difference in the iPS cell colony number, Retronectin method versus polybrene method ([2]; Condition A, retrovirus 10-fold dilution): ≥ 3 fold | iPS cell colony number higher in the Retronectin method ([2]; Condition B, versus polybrene method): 2 fold | iPS cell colony number ([2]; vector combination Condition A, virus 10-fold dilution): 10.0 | iPS cell colony number ([2]; vector combination Condition A, virus 100-fold dilution): 27.0 | iPS cell colony number ([2]; vector combination Condition B, virus 10-fold dilution): 11.5 | Number of iPS cell colonies ([3]; Condition A: DON5-am-OCT4-IR-SOX2, DON5-am-KLF4): 52.0 | Number of iPS cell colonies ([3]; Condition B: DON5-am-OCT4-IR-SOX2, DON5-am-LIN28-IR-NANOG, DON5-am-KLF4): 97.3
